Measurements: US20220409727A1, “Metal Complexes Bearing Bisstyryl-Bipyridine Ligand and Their Use as Photosensitizer Agent in One and Two-Photon Photodynamic Therapy” (Paris Sciences et Lettres, priority 2019, published 2022)
Where two headings read alike, the source gives them in different places.

Tests used:
[1] = Singlet oxygen measurement, direct evaluation (1O2 luminescence at 1270 nm); assay type: physicochemical
Method in brief: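 Air-saturated CH3CN or D2O solutions (A450 = 0.2) irradiated with 450 nm LED at varied intensities; 1O2 emission at 1270 nm recorded 1100–1400 nm with cooled germanium detector. Quantum yield from slope of integrated peak area versus intensity, absorbance-corrected, relative to Rose Bengal (Φ=76%).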

[2] = Singlet oxygen measurement, indirect evaluation (RNO absorbance); assay type: physicochemical
Method in brief: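 Complex (absorbance 0.2 in air-saturated CH3CN with RNO 24 μM, imidazole 12 mM; or 0.1 in air-saturated PBS with RNO 20 μM, histidine 10 mM) irradiated for varying times. RNO bleaching (A0−A) at 420 nm (CH3CN) or 440 nm (PBS) plotted against time; slope with absorbance correction gives singlet oxygen quantum yield.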

[3] = test system: mouse colon carcinoma (CT-26) cells; assay: (Photo-)cytotoxicity on 2D cell monolayers, resazurin assay, CT-26; conditions: for PI (480 nm): CT-26, dark vs 480 nm (10 min, 3.1 J/cm^2); for PI (540 nm): CT-26, dark vs 540 nm (40 min, 9.5 J/cm^2); for IC50: compounds 1-3 as chloride salts
Description: (§1) The human glioblastoma astrocytoma (U373) cell line was cultured in MEM medium supplemented with 10% FBS, 1% NEAA (non-essential amino-acids) and 1% penicillin/streptomycin. […] The human retinal epithelial cells (RPE-1, non-cancerous cells immortalized with hTERT) were cultured in DMEM-F12 medium supplemented with 10% FBS and 1% penicillin/streptomycin. All cell lines were obtained from the American Type Culture Collection (ATCC) and cultured at 37° C. and 5% CO2. Before an experiment, the cells were passaged three times.
(§2) The cytotoxicity of the compounds was assessed by measuring cell viability using a fluorometric resazurin assay. The cultivated cells were seeded in triplicates in 96 well plates with a density of 4000 cells per well in 100 μL of media. After 24 h, the medium was removed and the cells were treated with increasing concentrations of the compound diluted in cell media achieving a total volume of 200 μL. The cells were incubated with the compound for 4 h. After this time, the media was removed and replaced with 200 μL of fresh medium. For the phototoxicity studies, the cells were exposed to light with an Atlas Photonics LUMOS BIO irradiator. Each well was constantly illuminated with either a 480 nm or 540 nm irradiation. During this time, the temperature was maintained constantly at 37° C. The cells were grown in the incubator for additional 44 h. For the determination of the dark cytotoxicity, the cells were not irradiated and after the medium exchange directly incubated for 44 h. After this time, the medium was replaced with fresh medium containing resazurin with a final concentration of 0.2 mg/mL. After 4 h incubation, the amount of the fluorescent product resorufin was determined upon excitation at 540 nm and measurement its emission at 590 nm using a SpectraMax M2 Microplate Reader (Molecular Devices).
(§3) The obtained data was analyzed with the GraphPad Prism software.

[4] = Emission measurement in CH3CN; assay type: physicochemical; conditions: room temperature, excitation at 355 nm
[5] = Luminescence quantum yield measurements; assay type: physicochemical; parameters: key: fraction, relative to [Ru(bipy)3]Cl2 reference in CH3CN (Φem=5.9%); conditions: CH3CN, room temperature, excitation at 355 nm
Method in brief: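 Samples in CH3CN at absorbance 0.1 at 355 nm, excited at 355 nm by an Nd-YAG-pumped OPO with emission collected at right angle onto a monochromator and CCD. Quantum yield calculated relative to [Ru(bipy)3]Cl2 in CH3CN (Φem=5.9%), correcting for absorbed light fraction, integrated emission and refractive index.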

[6] = test system: human cervical carcinoma (HeLa) cells; assay: (Photo-)cytotoxicity on 2D cell monolayers, resazurin assay, HeLa; assay type: cell-based; conditions: for PI (480 nm): dark vs 480 nm (10 min, 3.1 J/cm^2); for PI (540 nm): dark vs 540 nm (40 min, 9.5 J/cm^2)
Source text: Before an experiment, the cells were passaged three times.

[7] = test system: mouse colon carcinoma (CT-26) cells
Description: as §1, §2, §3

[8] = Luminescence lifetime measurements; assay type: physicochemical; conditions: excitation at 355 nm; for τ/ns air (Lifetime): air saturated CH3CN; for τ/ns degassed (Lifetime): degassed CH3CN
Method in brief: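 Lifetimes were measured in air-saturated and degassed CH3CN solutions (absorbance 0.2 at 355 nm), excited at 355 nm by a pulsed Nd-YAG-pumped OPO. Emission was collected at right angles through a monochromator onto a photomultiplier tube.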

[9] = read-out: IC50 540 nm (40 min, 9.5 J/cm^2), CT-26, irradiation 540 nm (40 min, 9.5 J/cm^2)
[10] = read-out: IC50 dark, CT-26, dark, 4 h incubation
[11] = dark, 4 h incubation, compounds 1-3 as chloride salts, read-out: IC50 dark
[12] = read-out: IC50 480 nm (10 min, 3.1 J/cm^2), irradiation 480 nm (10 min, 3.1 J/cm^2), compounds 1-3 as chloride salts
[13] = read-out: IC50 540 nm (40 min, 9.5 J/cm^2), irradiation 540 nm (40 min, 9.5 J/cm^2), compounds 1-3 as chloride salts

Molecule	Singlet oxygen quantum yield, direct 450 nm CH3CN [1]	Singlet oxygen quantum yield, indirect 450 nm CH3CN ([2]; CH3CN)	Singlet oxygen quantum yield, indirect 450 nm PBS [2]	Singlet oxygen quantum yield, indirect 540 nm CH3CN ([2]; CH3CN)	Singlet oxygen quantum yield, indirect 540 nm PBS [2]	PI (480 nm) [3]	PI (540 nm) [3]	IC50 [3, 9]	IC50 [3, 10]	λem/nm (Emission maximum) [4]	ϕem (Luminescence Quantum Yield) [5]	PI (480 nm) [6]	PI (540 nm) [6]	IC50 [6, 11]	IC50 [6, 12]	IC50 [6, 13]	IC50 [7]	τ/ns air (Lifetime) [8]	τ/ns degassed (Lifetime) [8]	further results
CN(C)c1ccc(/C=C/c2ccnc(-c3cc(/C=C/c4ccc(N(C)C)cc4)ccn3)c2)cc1.F[P-](F)(F)(F)(F)F.F[P-](F)(F)(F)(F)F.[Ru+2].c1ccc(-c2ccnc3c2ccc2c(-c4ccccc4)ccnc23)cc1.c1ccc(-c2ccnc3c2ccc2c(-c4ccccc4)ccnc23)cc1 [Compound 10, [Ru(4,7-Diphenyl-1,10-phenanthroline)2((E,E′)-4,4′-Bis[p-(N,N-dimethylamino)styryl]-2,2′-bipyridine)][PF6]2]	51%	48%	2%	43%	2%	4.0	4.7	1100 ± 400 nM	5200 ± 800 nM	698 nm	0.006	6.7	6.3	10700 ± 1400 nM	1600 ± 300 nM	1700 ± 400 nM	1300 ± 300 nM	72 ns	339 ns	
COc1ccc(C=Cc2ccnc(-c3cc(C=Cc4ccc(OC)cc4)ccn3)c2)cc1.F[P-](F)(F)(F)(F)F.F[P-](F)(F)(F)(F)F.[Ru+2].c1ccc(-c2ccnc3c2ccc2c(-c4ccccc4)ccnc23)cc1.c1ccc(-c2ccnc3c2ccc2c(-c4ccccc4)ccnc23)cc1 [Compound 11, [Ru(4,7-Diphenyl-1,10-phenanthroline)2((E,E′)-4,4′-Bis[p-methoxystyryl]-2,2′-bipyridine)][PF6]2]	66%	73%	7%	72%	5%	17.2	14.3	600 ± 200 nM	8600 ± 900 nM	663 nm	0.027	27.5	23.6	16500 ± 800 nM	600 ± 300 nM	700 ± 500 nM	500 ± 200 nM	108 ns	679 ns	
[Ru(bipy)2((E,E′)-4,4′-Bis[p-(N,N-methoxy)styryl]-2,2′-bipyridine)][PF6]2 [Compound 7]	75%	77%	11%	68%	10%	>142.9	>111.1	900 ± 300 nM	> 100000 nM	664 nm	0.028	>83.3	>66.7	> 100000 nM	1200 ± 400 nM	1500 ± 500 nM	700 ± 400 nM		542 ns	singlet oxygen quantum yields in CH3CN ([2]; CH3CN, range over direct and indirect methods, 450 and 540 nm): 68-77%; singlet oxygen quantum yields in an aqueous solution ([2]; aqueous solution (PBS), range over 450 and 540 nm): 10-11%
